The numbers were not newly measured in US6444811B1, “Pyrazinones, compositions containing such compounds and methods of use” (Merck Frosst Canada & Co., priority 1999, dated 2002), which cites them from elsewhere.

One data set has as its target T1, caspase-1 (Homo sapiens, UniProt P29466).
T1 sequence (P29466 120-297 limits assumed): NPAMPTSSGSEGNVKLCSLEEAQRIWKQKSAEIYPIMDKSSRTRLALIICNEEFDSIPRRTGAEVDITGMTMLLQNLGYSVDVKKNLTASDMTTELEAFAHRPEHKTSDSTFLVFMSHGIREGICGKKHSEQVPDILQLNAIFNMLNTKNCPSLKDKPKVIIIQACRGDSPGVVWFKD
T1 sequence (P29466 317-404 limits assumed): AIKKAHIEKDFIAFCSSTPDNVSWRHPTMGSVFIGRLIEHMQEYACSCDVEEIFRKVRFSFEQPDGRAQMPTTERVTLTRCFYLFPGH

Another data set concerns the target T2, caspase-3 (Homo sapiens, UniProt P42574).
T2 sequence (P42574 29-175 limits assumed): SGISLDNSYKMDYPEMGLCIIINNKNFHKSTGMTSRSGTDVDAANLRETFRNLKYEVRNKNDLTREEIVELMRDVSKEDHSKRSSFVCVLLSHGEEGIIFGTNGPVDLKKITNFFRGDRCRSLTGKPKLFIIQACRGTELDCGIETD
T2 sequence (P42574 176-277 limits assumed): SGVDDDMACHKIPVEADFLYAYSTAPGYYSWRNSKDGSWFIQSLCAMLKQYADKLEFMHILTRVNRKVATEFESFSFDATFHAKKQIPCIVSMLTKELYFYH

As a reminder, the Ki is the equilibrium dissociation constant of an inhibitor or competing ligand from its target. For Ac-YVAD-CHO, the Ki at caspase-1 was under 0.001 µM; on caspase-3 it was 12 µM. Besides, the “kon caspase-1” value at caspase-1 (slow-binding time-dependent inhibition) was 380000 M⁻¹ s⁻¹.
